This note sets out measurements from ChEMBL document CHEMBL1134867, “Synthesis and initial structure-activity relationships of a novel series of imidazolo[1,2-a]pyrimid-5-ones as potent GnRH receptor antagonists” (Bioorg Med Chem Lett, 2002).

For series [1], the target named is T1, Gonadotropin-releasing hormone receptor (Homo sapiens, UniProt P30968).
T1 sequence (P30968 whole entry): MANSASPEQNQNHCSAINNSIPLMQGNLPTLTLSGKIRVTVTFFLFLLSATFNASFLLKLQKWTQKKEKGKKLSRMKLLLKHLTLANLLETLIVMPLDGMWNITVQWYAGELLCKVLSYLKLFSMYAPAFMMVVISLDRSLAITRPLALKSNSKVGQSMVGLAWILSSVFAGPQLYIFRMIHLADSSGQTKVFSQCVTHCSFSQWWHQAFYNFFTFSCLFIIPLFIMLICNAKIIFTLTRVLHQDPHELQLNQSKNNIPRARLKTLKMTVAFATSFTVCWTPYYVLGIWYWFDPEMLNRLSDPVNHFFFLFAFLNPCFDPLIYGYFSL
The series is described as follows: Ability to inhibit [125I-Tyr5,DLeu6,NMeLeu7,Pro9-NEt]GnRH agonist binding to the cloned human Gonadotropin-releasing hormone receptor was evaluated.

The target in series [2] is T1, Gonadotropin-releasing hormone receptor. The series is described as follows: Ability of compound to inhibit [125I-Tyr5,DLeu6,NMeLeu7,Pro9-NEt]GnRH agonist binding to the cloned human Gonadotropin-releasing hormone receptor was evaluated.
Series [3] concerns the target T2, Gonadotropin-releasing hormone receptor (Rattus norvegicus, UniProt P30969).
T2 sequence (P30969 whole entry): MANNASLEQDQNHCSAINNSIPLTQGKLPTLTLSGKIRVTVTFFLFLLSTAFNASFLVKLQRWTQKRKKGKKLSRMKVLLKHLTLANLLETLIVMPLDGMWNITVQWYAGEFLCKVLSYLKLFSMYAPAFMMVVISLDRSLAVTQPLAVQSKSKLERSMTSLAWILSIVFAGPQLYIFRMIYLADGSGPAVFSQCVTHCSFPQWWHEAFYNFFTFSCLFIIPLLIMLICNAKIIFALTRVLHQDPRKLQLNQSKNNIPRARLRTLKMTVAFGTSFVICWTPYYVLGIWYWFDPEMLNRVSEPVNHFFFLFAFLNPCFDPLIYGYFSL
The series is described as follows: Ability of compound to inhibit [125I-Tyr5,DLeu6,NMeLeu7,Pro9-NEt]GnRH agonist binding to the rat Gonadotropin-releasing hormone receptor was evaluated.

The nature of series [4]: Oral bioavailability in rat. The format is ADME, organism-based. As to conditions: in vivo.

Usually Ki stands for a measure of affinity in units of concentration, obtained from inhibition or displacement. A lower Ki goes with tighter binding. A word on the bioavailability: it is dose-corrected exposure relative to a reference, in per cent. Low values mean poor availability, high ones good availability. By IC50 is commonly meant the concentration needed to halve the response being measured.

In the case of `CCCC(=O)Nc1ccc(-c2cn3c(=O)c(C(=O)OCC)cn(Cc4ccccc4F)c3n2)cc1`, the Ki in series [1] was 30000 nM.
In series [1], `CCC(CC)OC(=O)c1cn(Cc2ccccc2F)c2nc(-c3ccc(NC(=O)C(C)C)cc3)c(CN(C)Cc3ccccc3)n2c1=O` came in with an inhibition constant Ki of 41 nM.
For the molecule `CCCC(=O)Nc1ccc(-c2nc3n(Cc4ccccc4F)cc(C(=O)OC(CC)CC)c(=O)n3c2CN(C)CCc2ccccn2)cc1`, the inhibitory constant (Ki) in series [1] worked out at 7.5 nM.
In turn, `CCCC(=O)Nc1ccc(-c2nc3n(Cc4ccccc4F)cc(C(=O)OC(CC)CC)c(=O)n3c2CN(C)CCOC)cc1` yielded a Ki in series [1] of 36 nM.
`CC[C@H]1OC(=O)[C@H](C)[C@@H](OC(=O)N2C(=O)OC[C@@H]2C)[C@H](C)[C@@H](O[C@@H]2O[C@H](C)C[C@H](N(C)CC3CC3)[C@H]2O)[C@@](C)(OC)C[C@@H](C)C(=O)[C@H](C)[C@H]2N(CCc3ccc(Cl)c(Cl)c3)C(=O)O[C@]12C`: the Ki in series [2] is 2 nM; in series [3], 0.631 nM. For the same molecule, in series [4], the bioavailability came to 15.2%.
As to `CCCC(=O)Nc1ccc(-c2nc3n(Cc4ccccc4F)cc(C(=O)OC(CC)CC)c(=O)n3c2CN(C)Cc2cccnc2)cc1`, the Ki in series [1] is 52 nM.
The molecule `CCCC(=O)Nc1ccc(-c2nc3n(Cc4ccccc4F)cc(C(=O)OC(CC)CC)c(=O)n3c2CN(C)CCc2ccccc2)cc1` showed an inhibitory constant (Ki) in series [1] of 14 nM. This Ki lies about 3.7-fold lower than the previous one.
As for `CCCC(=O)Nc1ccc(-c2nc3n(Cc4ccccc4F)cc(C(=O)OC(CC)CC)c(=O)n3c2CN2CCc3ccccc3C2)cc1`, in series [1], the Ki amounted to 290 nM.
With `CCCC(=O)Nc1ccc(-c2nc3n(Cc4ccccc4F)cc(C(=O)OCC)c(=O)n3c2CN(C)Cc2ccccc2)cc1`, in series [1], the Ki worked out at 80 nM.
In series [1], `CCOC(=O)c1cn(Cc2ccccc2F)c2nc(-c3ccc(OC)cc3)c(CN(C)Cc3ccccc3)n2c1=O` returned a Ki of 950 nM. This Ki lies about 12-fold higher than the previous one.
`CCCC(=O)Nc1ccc(-c2cn3c(=O)c(C(=O)OC(CC)CC)cn(Cc4ccccc4F)c3n2)cc1` showed a Ki in series [1] of 28000 nM.
As to `CCCC(=O)Nc1ccc(-c2nc3n(Cc4ccccc4F)cc(C(=O)OC(CC)CC)c(=O)n3c2CN2CCCC2)cc1`, the Ki in series [1] was 2200 nM. Compared with the last molecule, the Ki is about 13-fold lower.
Molecule `CCCC(=O)Nc1ccc(-c2nc3n(Cc4ccccc4F)cc(C(=O)OC(CC)CC)c(=O)n3c2CN(C)CC#N)cc1` displayed a Ki in series [1] of 300 nM.
As for `CCOC(=O)c1cn(Cc2ccccc2F)c2nc(-c3ccc(OC)cc3)c(CN(C)CCc3ccccn3)n2c1=O`, the Ki in series [1] was determined as 230 nM. This Ki and that of the molecule before are within 1.5-fold of each other.
For `CCCC(=O)Nc1ccc(-c2nc3n(Cc4ccccc4F)cc(C(=O)OCC)c(=O)n3c2CN(C)CCc2ccccn2)cc1`, affinity in series [1] was put at a Ki of 12 nM. Against the preceding molecule, the Ki is about 19-fold lower.
For `Cc1cc(-c2c(O)nc3cc(Cl)c(C(=O)Nc4ncccn4)cc3c2OCC[C@@H]2CCN2)cc(C)c1C`, the IC50 was determined as 0.44 nM in series [2] and 4 nM in series [3].
In turn, `CCCC(=O)Nc1ccc(-c2nc3n(Cc4ccccc4F)cc(C(=O)OC(CC)CC)c(=O)n3c2CN(C)Cc2ccco2)cc1` came in with an inhibition constant (Ki) in series [1] of 29 nM.
